Assay results: patent US20090053378A1, “Sweetener Compositions Having Enhanced Sweetness and Improved Temporal and/or Flavor Profiles” (THE COCA-COLA COMPANY, priority 2007, published 2009)
Blank lines part the entries; values can stand above or below the compound they belong to.

How the values were obtained:
[1] = Sweetness enhancement tasting of 2-hydroxybenzoic acid derivatives in sucrose solution; format: in vivo; set-up: key: NSE: No Significant Effect; settings: 6% sucrose, roughly neutral pH; 6-10 scale (6, 8, 10% sucrose references)
Method: (§1) The hydroxybenzoic acid derivatives were tasted by themselves in water at a concentration of 3 mM prior to tasting with sucrose, glucose, or fructose to determine enhancement activities. After it was determined that the hydroxybenzoic acid derivatives themselves would contribute no sweetness, they were added to solutions with; 5% fructose, 9% glucose and 6% sucrose. These solutions were adjusted to roughly neutral pH using dilute NaOH solution. The sweetness of the fructose, glucose, and sucrose solutions were evaluated both without and with the hydroxybenzoic acid derivatives using independent sweetness intensity scales for sucrose, fructose, and glucose which were scaled according to references provided for each sweetener, Thus, for sucrose, sweetness references provided were 6, 8, and 10% sucrose and the sweetness intensities of unknown samples were scaled on this 6-10 scale. For fructose, 5, 7.5, and 9% fructose references were provided and the sweetness intensities of unknown samples were scaled on this 5-9 scale. For glucose, 9, 10.5, and 12% glucose references were provided and the sweetness intensities of unknown samples were scaled on this 9-12 scale.

[2] = Sweetness enhancement tasting of 2-hydroxybenzoic acid derivatives in fructose solution; format: in vivo; set-up: key: NSE: No Significant Effect; settings: 5% fructose, roughly neutral pH; 5-9 scale (5, 7.5, 9% fructose references)
Method: as §1

[3] = Sweetness enhancement tasting of 2-hydroxybenzoic acid derivatives in glucose solution; format: in vivo; set-up: key: NSE: No Significant Effect; settings: 9% glucose, roughly neutral pH; 9-12 scale (9, 10.5, 12% glucose references)
Method: as §1

[4] = Rate of dissolution of rebaudioside A forms in water; format: physicochemical

Compound: Cc1ccc(O)c(C(=O)O)c1 [compound 12]
Sucrose sweetness rating, without => with the hydroxybenzoic acid derivative [1]: NSE
Fructose sweetness rating, without => with the hydroxybenzoic acid derivative [2]: NSE
Glucose sweetness rating, without => with the hydroxybenzoic acid derivative [3]: NSE

Compound: NC(=O)COc1ccc(C(=O)O)c(O)c1 [compound 41]
Sucrose sweetness rating, without => with the hydroxybenzoic acid derivative [1]: NSE
Fructose sweetness rating, without => with the hydroxybenzoic acid derivative [2]: NSE
Glucose sweetness rating, without => with the hydroxybenzoic acid derivative [3]: NSE

Compound: COc1ccc(C(=O)O)c(O)c1 [compound 2]
Sucrose sweetness rating, without => with the hydroxybenzoic acid derivative [1]: NSE
Fructose sweetness rating, without => with the hydroxybenzoic acid derivative [2]: NSE
Glucose sweetness rating, without => with the hydroxybenzoic acid derivative [3]: NSE

Compound: O=C(O)c1c(O)cccc1F [compound 24]
Sucrose sweetness rating, without => with the hydroxybenzoic acid derivative [1]: NSE
Fructose sweetness rating, without => with the hydroxybenzoic acid derivative [2]: NSE
Glucose sweetness rating, without => with the hydroxybenzoic acid derivative [3]: NSE

Rate of dissolution in H2O at 25° C. ([4]; in 5 minutes): High (>35.0%
Compound: rebaudioside A [Form 4]

Compound: O=C(O)c1ccc(OCCCCO)cc1O [compound 40]
Sucrose sweetness rating, without => with the hydroxybenzoic acid derivative [1]: NSE
Fructose sweetness rating, without => with the hydroxybenzoic acid derivative [2]: NSE
Glucose sweetness rating, without => with the hydroxybenzoic acid derivative [3]: NSE

Compound: Cc1cc(C)c(O)c(C(=O)O)c1 [compound 31]
Sucrose sweetness rating, without => with the hydroxybenzoic acid derivative [1]: NSE
Fructose sweetness rating, without => with the hydroxybenzoic acid derivative [2]: NSE
Glucose sweetness rating, without => with the hydroxybenzoic acid derivative [3]: NSE

Compound: O=C(O)c1ccc(OCCCc2ccccc2)cc1O [compound 36]
Sucrose sweetness rating, without => with the hydroxybenzoic acid derivative [1]: NSE
Fructose sweetness rating, without => with the hydroxybenzoic acid derivative [2]: NSE
Glucose sweetness rating, without => with the hydroxybenzoic acid derivative [3]: NSE

Compound: Nc1ccc(C(=O)O)c(O)c1 [compound 29]
Fructose sweetness rating, without => with the hydroxybenzoic acid derivative [2]: NSE

Compound: O=C(O)c1cc([N+](=O)[O-])ccc1O [compound 20]
Sucrose sweetness rating, without => with the hydroxybenzoic acid derivative [1]: NSE
Fructose sweetness rating, without => with the hydroxybenzoic acid derivative [2]: NSE

Compound: Cc1ccc(C(=O)O)c(O)c1 [compound 11]
Sucrose sweetness rating, without => with the hydroxybenzoic acid derivative [1]: NSE
Fructose sweetness rating, without => with the hydroxybenzoic acid derivative [2]: NSE
Glucose sweetness rating, without => with the hydroxybenzoic acid derivative [3]: NSE

Compound: COC(=O)COc1ccc(C(=O)O)c(O)c1 [compound 37]
Sucrose sweetness rating, without => with the hydroxybenzoic acid derivative [1]: NSE
Fructose sweetness rating, without => with the hydroxybenzoic acid derivative [2]: NSE
Glucose sweetness rating, without => with the hydroxybenzoic acid derivative [3]: NSE

Compound: O=C(O)c1ccc(O)c(O)c1O [compound 26]
Sucrose sweetness rating, without => with the hydroxybenzoic acid derivative [1]: NSE
Fructose sweetness rating, without => with the hydroxybenzoic acid derivative [2]: NSE
Glucose sweetness rating, without => with the hydroxybenzoic acid derivative [3]: NSE

Compound: Nc1ccc(O)c(C(=O)O)c1 [compound 30]
Sucrose sweetness rating, without => with the hydroxybenzoic acid derivative [1]: NSE
Fructose sweetness rating, without => with the hydroxybenzoic acid derivative [2]: NSE
Glucose sweetness rating, without => with the hydroxybenzoic acid derivative [3]: NSE

Compound: COc1ccc(O)c(C(=O)O)c1 [compound 3]
Sucrose sweetness rating, without => with the hydroxybenzoic acid derivative [1]: NSE
Fructose sweetness rating, without => with the hydroxybenzoic acid derivative [2]: NSE
Glucose sweetness rating, without => with the hydroxybenzoic acid derivative [3]: NSE

Compound: Nc1cc(C(=O)O)c(O)c(S(=O)(=O)O)c1 [compound 27]
Sucrose sweetness rating, without => with the hydroxybenzoic acid derivative [1]: NSE
Fructose sweetness rating, without => with the hydroxybenzoic acid derivative [2]: NSE
Glucose sweetness rating, without => with the hydroxybenzoic acid derivative [3]: NSE

Rate of dissolution in H2O at 25° C. ([4]; in 5 minutes): High (>30%
Compound: rebaudioside A [Form 3]

Compound: O=C(O)c1cccc([N+](=O)[O-])c1O [compound 18]
Sucrose sweetness rating, without => with the hydroxybenzoic acid derivative [1]: NSE
Fructose sweetness rating, without => with the hydroxybenzoic acid derivative [2]: NSE
Glucose sweetness rating, without => with the hydroxybenzoic acid derivative [3]: NSE

Compound: O=C(O)c1ccc(O)c(C(=O)O)c1 [compound 33]
Sucrose sweetness rating, without => with the hydroxybenzoic acid derivative [1]: NSE
Fructose sweetness rating, without => with the hydroxybenzoic acid derivative [2]: NSE
Glucose sweetness rating, without => with the hydroxybenzoic acid derivative [3]: NSE

Compound: O=C(O)COc1ccc(C(=O)O)c(O)c1 [compound 38]
Sucrose sweetness rating, without => with the hydroxybenzoic acid derivative [1]: NSE
Fructose sweetness rating, without => with the hydroxybenzoic acid derivative [2]: NSE
Glucose sweetness rating, without => with the hydroxybenzoic acid derivative [3]: NSE

Compound: Nc1cccc(C(=O)O)c1O [compound 28]
Sucrose sweetness rating, without => with the hydroxybenzoic acid derivative [1]: NSE
Fructose sweetness rating, without => with the hydroxybenzoic acid derivative [2]: NSE
Glucose sweetness rating, without => with the hydroxybenzoic acid derivative [3]: NSE

Compound: O=Cc1ccc(O)c(C(=O)O)c1 [compound 32]
Sucrose sweetness rating, without => with the hydroxybenzoic acid derivative [1]: NSE
Fructose sweetness rating, without => with the hydroxybenzoic acid derivative [2]: NSE
Glucose sweetness rating, without => with the hydroxybenzoic acid derivative [3]: NSE

Compound: COc1cccc(O)c1C(=O)O [compound 4]
Sucrose sweetness rating, without => with the hydroxybenzoic acid derivative [1]: NSE
Fructose sweetness rating, without => with the hydroxybenzoic acid derivative [2]: NSE
Glucose sweetness rating, without => with the hydroxybenzoic acid derivative [3]: NSE

Rate of dissolution in H2O at 25° C. ([4]; in 60 minutes): Very low (<0.2%
Compound: rebaudioside A [Form 1]

Rate of dissolution in H2O at 25° C. ([4]; in 5 minutes): Intermediate (<30%
Compound: rebaudioside A [Form 2]

Compound: Cc1c(O)ccc(C(=O)O)c1O [compound 25]
Sucrose sweetness rating, without => with the hydroxybenzoic acid derivative [1]: NSE
Fructose sweetness rating, without => with the hydroxybenzoic acid derivative [2]: NSE
Glucose sweetness rating, without => with the hydroxybenzoic acid derivative [3]: NSE

Compound: O=C(O)c1ccc(OCc2ccccc2)cc1O [compound 35]
Sucrose sweetness rating, without => with the hydroxybenzoic acid derivative [1]: NSE
Fructose sweetness rating, without => with the hydroxybenzoic acid derivative [2]: NSE
Glucose sweetness rating, without => with the hydroxybenzoic acid derivative [3]: NSE

Compound: COc1cccc(C(=O)O)c1O [compound 1]
Sucrose sweetness rating, without => with the hydroxybenzoic acid derivative [1]: NSE
Fructose sweetness rating, without => with the hydroxybenzoic acid derivative [2]: NSE
Glucose sweetness rating, without => with the hydroxybenzoic acid derivative [3]: NSE

Compound: CCOc1ccc(C(=O)O)c(O)c1 [compound 14]
Sucrose sweetness rating, without => with the hydroxybenzoic acid derivative [1]: NSE
Fructose sweetness rating, without => with the hydroxybenzoic acid derivative [2]: NSE
Glucose sweetness rating, without => with the hydroxybenzoic acid derivative [3]: NSE

Compound: O=C(O)c1cc(F)ccc1O [compound 23]
Sucrose sweetness rating, without => with the hydroxybenzoic acid derivative [1]: NSE
Fructose sweetness rating, without => with the hydroxybenzoic acid derivative [2]: NSE
Glucose sweetness rating, without => with the hydroxybenzoic acid derivative [3]: NSE

Compound: CCCOc1ccc(C(=O)O)c(O)c1 [compound 34]
Sucrose sweetness rating, without => with the hydroxybenzoic acid derivative [1]: NSE
Fructose sweetness rating, without => with the hydroxybenzoic acid derivative [2]: NSE
Glucose sweetness rating, without => with the hydroxybenzoic acid derivative [3]: NSE

Compound: O=C(O)c1ccc(OCCO)cc1O [compound 39]
Sucrose sweetness rating, without => with the hydroxybenzoic acid derivative [1]: NSE
Fructose sweetness rating, without => with the hydroxybenzoic acid derivative [2]: NSE
Glucose sweetness rating, without => with the hydroxybenzoic acid derivative [3]: NSE

Compound: O=C(O)c1c(O)cccc1O [compound 8]
Sucrose sweetness rating, without => with the hydroxybenzoic acid derivative [1]: NSE
